Results as given in ChEMBL document CHEMBL1201862, “PubChem BioAssay data set” (2004).
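Cells were grown in 96-well plates and exposed to each compound for 48 hours at five concentrations; endpoints were interpolated linearly between bracketing concentrations, or set to the highest concentration if not reached. GI50: concentration for 50% inhibition of growth.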 Active and inactive are the calls of the source. Rule as the data show it: active = GI50 up to about 1.1 µM and inactive = higher.

Key:
Test in all cases: growth of human tumour cells (NCI), 48 h
786-0 = system: 786-0
A549 = system: A549
ACHN = system: ACHN
COLO 205 = system: COLO 205
EKVX = system: EKVX
HOP-92 = system: HOP-92
Hs-578T = system: Hs-578T
MDA-MB-435 = system: MDA-MB-435
Malme-3M = system: Malme-3M
NCI-H23 = system: NCI-H23
NCI-H522 = system: NCI-H522
PC-3 = system: PC-3
RPMI-8226 = system: RPMI-8226
RXF 393 = system: RXF 393
SK-MEL-2 = system: SK-MEL-2
SK-MEL-5 = system: SK-MEL-5
T47D = system: T47D
TK-10 = system: TK-10
UACC-257 = system: UACC-257
A498 = system: A498

Measured: GI50

N=C(N)NS(=O)(=O)c1ccc(/N=N/c2c(O)c(C(=O)O)cc3ccccc23)cc1
inactive: 786-0 > 100 µM | A549 > 100 µM | ACHN > 100 µM | COLO 205 > 100 µM | EKVX > 100 µM | HOP-92 > 100 µM | Hs-578T > 100 µM | MDA-MB-435 > 100 µM | Malme-3M > 100 µM | NCI-H23 > 100 µM | NCI-H522 > 100 µM | PC-3 > 100 µM | RPMI-8226 > 100 µM | RXF 393 > 100 µM | SK-MEL-2 > 100 µM | SK-MEL-5 > 100 µM | T47D > 100 µM | TK-10 > 100 µM | UACC-257 > 100 µM

O/N=C1/CCCc2nonc21
inactive: 786-0 > 100 µM | A549 > 100 µM | ACHN > 100 µM | COLO 205 > 100 µM | EKVX > 100 µM | HOP-92 > 100 µM | Hs-578T > 100 µM | MDA-MB-435 > 100 µM | Malme-3M > 100 µM | NCI-H23 > 100 µM | PC-3 > 100 µM | RPMI-8226 > 100 µM | RXF 393 > 100 µM | SK-MEL-2 > 100 µM | SK-MEL-5 > 100 µM | T47D > 100 µM | TK-10 > 100 µM | UACC-257 > 100 µM

Cc1ccc(S(=O)(=O)NC(=O)NC(Cc2ccc(O)cc2)C(=O)O)cc1 (configuration not stated)
inactive: 786-0 > 100 µM | A549 > 100 µM | COLO 205 > 100 µM | HOP-92 > 100 µM | Hs-578T > 100 µM | Malme-3M > 100 µM | NCI-H23 > 100 µM | NCI-H522 > 100 µM | PC-3 > 100 µM | RPMI-8226 > 100 µM | RXF 393 > 100 µM | SK-MEL-2 > 100 µM | SK-MEL-5 > 100 µM | T47D > 100 µM | TK-10 > 100 µM | UACC-257 > 100 µM

COc1ccccc1N1CCN(CCCNC(=O)c2cc(Cl)c(N)c(Cl)c2)CC1
inactive: 786-0 33.3 µM | A498 42 µM | A549 61.9 µM | ACHN 55.2 µM | COLO 205 > 10 µM | EKVX > 100 µM | HOP-92 4.36 µM | Hs-578T 67.1 µM | MDA-MB-435 40.2 µM | Malme-3M 18.8 µM | NCI-H23 49.7 µM | RPMI-8226 18.7 µM | RXF 393 27 µM | SK-MEL-5 18.2 µM | T47D 42.9 µM | TK-10 54.2 µM | UACC-257 22.8 µM

CCC(CCN)(CCN)[N+](=O)[O-]
inactive: 786-0 > 100 µM | A549 > 100 µM | COLO 205 > 100 µM | EKVX > 100 µM | HOP-92 > 100 µM | Hs-578T > 100 µM | MDA-MB-435 > 100 µM | Malme-3M > 100 µM | NCI-H522 58.3 µM | PC-3 > 100 µM | RPMI-8226 > 100 µM | RXF 393 > 100 µM | SK-MEL-2 > 100 µM | SK-MEL-5 > 100 µM | T47D > 100 µM | UACC-257 > 100 µM

O=C1C[C@@H](c2ccccc2)O[C@@H](c2ccccc2)C1
inactive: 786-0 > 100 µM | A549 > 100 µM | COLO 205 97.5 µM | EKVX > 100 µM | HOP-92 > 100 µM | Hs-578T > 100 µM | MDA-MB-435 > 100 µM | Malme-3M > 100 µM | NCI-H23 > 100 µM | PC-3 > 100 µM | RPMI-8226 > 100 µM | RXF 393 > 100 µM | SK-MEL-2 > 100 µM | SK-MEL-5 > 100 µM | T47D > 100 µM | UACC-257 > 100 µM

COc1cccc(/C=C2\N=C(c3ccccc3)OC2=O)c1
inactive: 786-0 74.5 µM | A549 > 100 µM | ACHN > 100 µM | COLO 205 85.1 µM | EKVX > 100 µM | HOP-92 > 100 µM | Hs-578T 22.5 µM | MDA-MB-435 > 100 µM | NCI-H23 > 100 µM | NCI-H522 12.3 µM | PC-3 > 100 µM | RPMI-8226 35.1 µM | RXF 393 > 100 µM | SK-MEL-2 56.1 µM | SK-MEL-5 50.5 µM | T47D > 100 µM | TK-10 > 100 µM | UACC-257 > 100 µM

CCN(CC)c1c(-c2c(OC(C)C)c(=O)c2=O)c(=O)n2ccsc2c1OC(C)=O
inactive: 786-0 > 100 µM | A498 > 100 µM | ACHN > 100 µM | COLO 205 > 100 µM | EKVX 71.9 µM | HOP-92 > 100 µM | Hs-578T 17.8 µM | MDA-MB-435 > 100 µM | Malme-3M 39.7 µM | NCI-H23 > 100 µM | NCI-H522 17.5 µM | PC-3 > 100 µM | RPMI-8226 34.8 µM | SK-MEL-2 > 100 µM | SK-MEL-5 > 100 µM | TK-10 > 100 µM | UACC-257 > 100 µM
